Measured values from ChEMBL document CHEMBL4699525, “Design and synthesis of new indanol-1,2,3-triazole derivatives as potent antitubercular and antimicrobial agents” (Bioorg Med Chem Lett, 2020).
≈ marks a conversion by molar mass, not a printed value. Calls of active or inactive are those of the source. The rule behind the calls is not given here.

Assays:
[1] = Cytotoxicity against human HEK293 cells assessed as inhibition of cell growth at 25 uM incubated for 48 hrs by MTT assay; type: cell-based
Bacillus cereus = experiment: Antibacterial activity against Bacillus cereus assessed as inhibition of bacterial growth incubated for 24 hrs by agar well diffusion method; type: functional
Candida albicans [2] = experiment: Antifungal activity against Candida albicans assessed as inhibition of fungal growth incubated for 24 hrs by agar well diffusion method; type: functional
Staphylococcus aureus [3] = experiment: Antibacterial activity against Staphylococcus aureus assessed as inhibition of bacterial growth incubated for 24 hrs by agar well diffusion method; type: functional
Klebsiella aerogenes [4] = experiment: Antibacterial activity against Enterobacter aerogenes assessed as inhibition of bacterial growth incubated for 24 hrs by agar well diffusion method; type: functional
Shigella boydii [5] = experiment: Antibacterial activity against Shigella boydii assessed as inhibition of bacterial growth incubated for 24 hrs by agar well diffusion method; type: functional
[6] = target: T1, Enoyl-[acyl-carrier-protein] reductase [NADH] (Mycobacterium tuberculosis) (UniProt P9WGR1); experiment: Inhibition of InhA in Mycobacterium tuberculosis H37Rv assessed antitubercular activity by measuring inhibition of bacterial growth incubated for 7 days by MABA assay; conditions: time 7.0 day
T1 sequence (whole entry): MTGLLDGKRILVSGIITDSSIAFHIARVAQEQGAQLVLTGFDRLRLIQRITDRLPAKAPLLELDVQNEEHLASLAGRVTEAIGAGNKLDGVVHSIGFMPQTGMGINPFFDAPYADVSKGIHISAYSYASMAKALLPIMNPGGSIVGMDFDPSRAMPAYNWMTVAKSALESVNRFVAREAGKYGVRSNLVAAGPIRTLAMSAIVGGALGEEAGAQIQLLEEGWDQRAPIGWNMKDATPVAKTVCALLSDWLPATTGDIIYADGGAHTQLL

Pseudomonas aeruginosa = experiment: Antibacterial activity against Pseudomonas aeruginosa assessed as inhibition of bacterial growth incubated for 24 hrs by agar well diffusion method; type: functional
Bacillus subtilis = experiment: Antibacterial activity against Bacillus subtilis assessed as inhibition of bacterial growth incubated for 24 hrs by agar well diffusion method; type: functional
[7] = test system: Salmonella enterica subsp. enterica serovar Abony; experiment: Antibacterial activity against Salmonella abony assessed as inhibition of bacterial growth incubated for 24 hrs by agar well diffusion method; type: functional
Escherichia coli = experiment: Antibacterial activity against Escherichia coli assessed as inhibition of bacterial growth incubated for 24 hrs by agar well diffusion method; type: functional
Saccharomyces cerevisiae [8] = experiment: Antifungal activity against Saccharomyces cerevisiae assessed as inhibition of fungal growth incubated for 24 hrs by agar well diffusion method; type: functional
Salmonella typhi = experiment: Antibacterial activity against Salmonella typhi assessed as inhibition of bacterial growth incubated for 24 hrs by agar well diffusion method; type: functional
Aspergillus niger [9] = experiment: Antifungal activity against Aspergillus niger assessed as inhibition of fungal growth incubated for 24 hrs by agar well diffusion method; type: functional
Aspergillus niger [10] = experiment: Antifungal activity against Aspergillus niger assessed as inhibition of […] growth incubated for overnight by CLSI based method; type: functional
Saccharomyces cerevisiae [11] = experiment: Antifungal activity against Saccharomyces cerevisiae assessed as inhibition of […] growth incubated for overnight by CLSI based method; type: functional
Candida albicans [12] = experiment: Antifungal activity against Candida albicans assessed as inhibition of […] growth incubated for overnight by CLSI based method; type: functional
Klebsiella aerogenes [13] = experiment: Antibacterial activity against Enterobacter aerogenes assessed as inhibition of bacterial growth incubated for overnight by CLSI based method; type: functional
Shigella boydii [14] = experiment: Antibacterial activity against Shigella boydii assessed as inhibition of bacterial growth incubated for overnight by CLSI based method; type: functional
Staphylococcus aureus [15] = experiment: Antibacterial activity against Staphylococcus aureus assessed as inhibition of bacterial growth incubated for overnight by CLSI based method; type: functional
[16] = Salmonella enterica subsp. enterica serovar Typhi

| SMILES | inhibition at 48 h, 25 µM [1] | diameter of the inhibition zone (DIZ) (Bacillus cereus) | diameter of the inhibition zone (DIZ) (Candida albicans [2]) | diameter of the inhibition zone (DIZ) (Staphylococcus aureus [3]) | diameter of the inhibition zone (DIZ) (Klebsiella aerogenes [4]) | diameter of the inhibition zone (DIZ) (Shigella boydii [5]) | MIC [6] | diameter of the inhibition zone (DIZ) (Pseudomonas aeruginosa) | diameter of the inhibition zone (DIZ) (Bacillus subtilis) | diameter of the inhibition zone (DIZ) [7] | diameter of the inhibition zone (DIZ) (Escherichia coli) | diameter of the inhibition zone (DIZ) (Saccharomyces cerevisiae [8]) | diameter of the inhibition zone (DIZ) (Salmonella typhi; [16]) | diameter of the inhibition zone (DIZ) (Aspergillus niger [9]) | MIC (Aspergillus niger [10]) | MIC (Saccharomyces cerevisiae [11]) | MIC (Candida albicans [12]) | MIC (Klebsiella aerogenes [13]) | diameter of the inhibition zone (DIZ) (Salmonella typhi) | MIC (Shigella boydii [14]) | also measured |
| --- | --- | --- | --- | --- | --- | --- | --- | --- | --- | --- | --- | --- | --- | --- | --- | --- | --- | --- | --- | --- | --- |
| COc1cccc(-n2cc(COc3ccc4c(c3)CCC4)nn2)c1 | 25.8% | inactive | 12 mm | 12 mm | inactive | 13 mm | 12.5 µM (≈ 4.02 µg/mL) | 9 mm | inactive | 11 mm | 10 mm | inactive | – | – | – | – | – | – | – | – | – |
| Fc1ccccc1-n1cc(COc2ccc3c(c2)CCC3)nn1 | 21% | inactive | 9 mm | 15 mm | inactive | inactive | 6.25 µM (≈ 1.93 µg/mL) | inactive | inactive | inactive | inactive | 10 mm | inactive | inactive | – | – | – | – | – | – | – |
| c1ccc(-n2cc(COc3ccc4c(c3)CCC4)nn2)cc1 | 23.4% | inactive | 12 mm | 7 mm | inactive | inactive | 25 µM (≈ 7.28 µg/mL) | inactive | inactive | inactive | inactive | 8 mm | inactive | inactive | – | – | – | – | – | – | – |
| OC(Cn1cncn1)(Cn1cncn1)c1ccc(F)cc1F [FLUCONAZOLE] | – | – | 30 mm | – | – | – | – | – | – | – | – | 30 mm | – | 30 mm | 8 mg/L (≈ 26.1 µM) | 12 mg/L (≈ 39.2 µM) | 25 mg/L (≈ 81.6 µM) | – | – | – | – |
| O=C(Cn1cc(COc2ccc3c(c2)CCC3)nn1)Nc1cccc([N+](=O)[O-])c1 | – | 12 mm | 10 mm | 10 mm | 10 mm | 10 mm | > 25 µM | 6 mm | 11 mm | 10 mm | 10 mm | 9 mm | – | 5 mm | 220 mg/L (≈ 559 µM) | 135 mg/L (≈ 343 µM) | 150 mg/L (≈ 381 µM) | 145 mg/L (≈ 369 µM) | 10 mm | 140 mg/L (≈ 356 µM) | MIC (Staphylococcus aureus [15]): 140 mg/L (≈ 356 µM) |
| Cc1cccc(-n2cc(COc3ccc4c(c3)CCC4)nn2)c1 | 23.4% | inactive | 10 mm | 6 mm | inactive | inactive | 12.5 µM (≈ 3.82 µg/mL) | inactive | inactive | inactive | inactive | 13 mm | inactive | inactive | – | – | – | – | – | – | – |
| Cc1cc(C)c(-n2cc(COc3ccc4c(c3)CCC4)nn2)c(C)c1 | 16.6% | inactive | inactive | inactive | inactive | inactive | 6.25 µM (≈ 2.08 µg/mL) | inactive | inactive | inactive | inactive | inactive | inactive | inactive | – | – | – | – | – | – | – |
| O=[N+]([O-])c1cccc(-n2cc(COc3ccc4c(c3)CCC4)nn2)c1 | – | 13 mm | 12 mm | 8 mm | 14 mm | 10 mm | > 25 µM | 11 mm | 12 mm | 8 mm | 12 mm | 7 mm | – | 6 mm | 220 mg/L (≈ 654 µM) | 180 mg/L (≈ 535 µM) | 125 mg/L (≈ 372 µM) | 70 mg/L (≈ 208 µM) | 8 mm | 90 mg/L (≈ 268 µM) | MIC (Staphylococcus aureus [15]): 165 mg/L (≈ 491 µM) |
| COc1ccccc1-n1cc(COc2ccc3c(c2)CCC3)nn1 | 19.8% | inactive | 10 mm | 10 mm | inactive | inactive | 12.5 µM (≈ 4.02 µg/mL) | inactive | inactive | inactive | inactive | inactive | inactive | inactive | – | – | – | – | – | – | – |
| O=C(Cn1cc(COc2ccc3c(c2)CCC3)nn1)Nc1cccc(Cl)c1 | – | 10 mm | 10 mm | 10 mm | 12 mm | 11 mm | > 25 µM | 9 mm | 12 mm | 7 mm | 13 mm | 5 mm | – | 8 mm | 190 mg/L (≈ 496 µM) | 230 mg/L (≈ 601 µM) | 165 mg/L (≈ 431 µM) | 110 mg/L (≈ 287 µM) | 13 mm | 140 mg/L (≈ 366 µM) | MIC (Staphylococcus aureus [15]): 135 mg/L (≈ 353 µM) |
| Cc1ccc(NC(=O)Cn2cc(COc3ccc4c(c3)CCC4)nn2)cc1 | – | inactive | 12 mm | 8 mm | inactive | inactive | > 25 µM | inactive | inactive | inactive | inactive | inactive | inactive | inactive | – | – | – | – | – | – | – |
| COc1cccc(NC(=O)Cn2cc(COc3ccc4c(c3)CCC4)nn2)c1 | – | inactive | inactive | inactive | inactive | 15 mm | > 25 µM | inactive | inactive | inactive | inactive | inactive | inactive | inactive | – | – | – | – | – | – | – |
| CN(C)[C@@H]1C(O)=C(C(N)=O)C(=O)[C@@]2(O)C(O)=C3C(=O)c4c(O)cccc4[C@@](C)(O)[C@H]3C[C@@H]12 [TETRACYCLINE] | – | 33 mm | – | 29 mm | 33 mm | 34 mm | – | 32 mm | 32 mm | 32 mm | 29 mm | – | – | – | – | – | – | 30 mg/L (≈ 67.5 µM) | 33 mm | 20 mg/L (≈ 45 µM) | MIC (Staphylococcus aureus [15]): 20 mg/L (≈ 45 µM) |
